Tests used:
His×6-YY1 = His×6-YY1 (Homo sapiens, UniProt P25490); assay: GST pull-down of His×6-YY1 by GST-EZH2 mutants; assay type: binding; details: 1.0 µg His×6-YY1, 4 h
From the text: (§1) HA-tagged expression vectors of wild-type (wt) and mutant YY1 were constructed by amplifying and subcloning the corresponding fragments of the YY1 coding region into the pcDNA3 vector. To generate EZH2 mutants, different regions of its coding sequence (1–251, 252–384, 385–618, 619–751, 385–465, 465–545, 545–618, 465–492, and 465–519) were amplified and subcloned into pGEX-4T-1 and pSL4-3×Flag plasmids to construct vectors expressing recombinant GST-EZH2 and 3×Flag-EZH2 mutants, respectively. To generate vectors expressing 3×Flag-YPB, -OPB, and -Cont (with a scrambled sequence of […]) peptides, their coding sequences were individually subcloned into a lentiviral vector pSL4 using the CMV promoter to drive the expression of 3×Flag-YPB-2A1-EGFP, 3×Flag-OPB-2A1-EGFP, and 3×Flag-Cont-2A1-EGFP. […] Two shRNAs against PTENP1 (shPTENP1-1 and shPTENP1-2, with target sequences of […] and […], respectively), and one control shRNA (with a scrambled target sequence of […]) driven by the U6 promoter were generated in a lentiviral vector with a puromycin selection marker as we previously described. In addition, we also generated lentiviruses expressing two shRNAs (shYY1-1 and shYY1-2, with target sequences of […] and […], respectively), and two EZH2 (shEZH2-1 and shEZH2-2, with target sequences of […] and […]-[…], respectively).
The GST fusion protein expressed in E. coli was lysed with the binding buffer (20 mM Tris⋅HCl, pH 7.5, 150 mM NaCl, 0.1% Nonidet P-40, 1 mM dithiothreitol, 10% glycerol, 1 mM EDTA, 2.5 mM MgCl2, and 1 µg/mL leupeptin) for 30 min at 4 °C. Glutathione-Sepharose beads (Thermo Fisher Scientific) were incubated with bacterial lysates containing expressed recombinant GST-EZH2 mutant proteins for 4 h at 4 °C. After extensive washing of the beads, 1.0 µg of purified His×6-YY1 was added, and the samples were incubated for another 4 h. The washed beads with bound proteins were resuspended in an SDS-containing sample buffer and analyzed by SDS-PAGE.

HA-YY1 = assay: Co-IP of Flag-EZH2 wt/mutants with HA-YY1; assay type: binding; details: co-IP, Flag-tagged EZH2 and HA-YY1
From the text: as §1
Immunoprecipitations were performed as described previously. Cells were harvested and lysed in cell lysis buffer (50 mM Tris⋅HCl, pH 7.5, 150 mM NaCl, 1% Nonidet P-40, 0.5% sodium deoxycholate, and 1% protease inhibitor cocktails, Sigma-Aldrich). […] In Western blot studies, protein concentrations of samples were determined using the Bradford protein method, and 20 μg of proteins for each sample were separated by SDS-PAGE followed by transfer to polyvinylidene difluoride (PVDF) membranes. […]
Figure 1 Identification of YY1 binding site on EZH2 protein. […] The samples were analyzed by Western blot using EZH2 and YY1 antibodies as indicated. […]

[1] = test system: breast cancer cells (MCF-7, MDA-MB-231, MDA-MB-453); assay: Annexin V-FITC/PI apoptosis, breast cancer cells together; assay type: cell-based; details: peptides 30 μM (no FITC), tamoxifen 15 µM, 48 h; vs Cont
Method: The cells were collected by trypsinization and washed twice by ice-cold PBS, followed by Annexin V-FITC and propidium iodide (PI) staining for 10 min using the reagents in an Annexin V-FITC Apoptosis Detection Kit (Vazyme Biotech Co. Ltd., Nanjing, China). The ratios of apoptotic cells were evaluated using flow cytometry (AccuriC6, BD Biosciences, San Jose, CA, USA).

Sequence of His×6-YY1 (P25490 whole entry, the tested form may be a part): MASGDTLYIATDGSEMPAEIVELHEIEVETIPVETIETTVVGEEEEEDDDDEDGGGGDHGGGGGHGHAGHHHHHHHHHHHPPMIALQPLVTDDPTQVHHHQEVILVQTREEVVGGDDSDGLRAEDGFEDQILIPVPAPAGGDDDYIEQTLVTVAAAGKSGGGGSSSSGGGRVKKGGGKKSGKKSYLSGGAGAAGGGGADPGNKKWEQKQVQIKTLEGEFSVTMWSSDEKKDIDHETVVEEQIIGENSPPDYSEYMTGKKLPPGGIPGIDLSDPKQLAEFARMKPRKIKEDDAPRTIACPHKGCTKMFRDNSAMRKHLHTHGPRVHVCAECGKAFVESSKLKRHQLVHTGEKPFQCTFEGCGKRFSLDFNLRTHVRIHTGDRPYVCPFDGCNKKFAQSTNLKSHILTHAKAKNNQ

interaction with His×6-YY1 in GST pull-down (His×6-YY1) | Molecule | interaction with HA-YY1 in co-IP (HA-YY1) | other results
could interact with His×6-YY1 | GST-EZH2 (385–618): GST fusion of EZH2 residues 385–618 |  | 
 | Flag-EZH2 wt: Flag-tagged wild-type EZH2 | could bring down HA-YY1 | 
 | CC/C(=C(\c1ccccc1)c1ccc(OCCN(C)C)cc1)c1ccccc1 [tamoxifen] |  | pro-apoptotic portions of breast cancer cells [1]: could significantly increase the pro-apoptotic portions
could also pull down His×6-YY1 | GST-EZH2 (465–545): GST fusion of EZH2 residues 465–545 |  | 
 | (385–618): Flag-tagged EZH2 region 385–618 | could bring down HA-YY1 | 
could interact with His×6-YY1 | GST-EZH2 (465–519): GST fusion of EZH2 residues 465–519 |  | 
 | EZH2 (465–545): Flag-tagged EZH2 mutant 465–545 | could interact with HA-YY1 | 

— article PMC8156467, “Disruption of YY1-EZH2 Interaction Using Synthetic Peptides Inhibits Breast Cancer Development” (Cancers, 2021)
